The values below come from paper PMC12592173, “Targeted degradation of EGFR 19Del by PROTACs suppresses tumor growth in non-small-cell lung cancer” (Frontiers in Pharmacology, 2025).

Data set [1] has as its target T1, EGFR^L858R (Homo sapiens, UniProt P00533, L858R).
T1 construct: expressed in transfected cells; host or cells: Ba/F3 (lentiviral pLVX-EGFR^L858R, puromycin selected)
Description: Western blot of EGFR degradation in Ba/F3 cells stably expressing EGFR^L858R. The settings on record: 24 h. The class given is cell-based. As for the experimental part: HCC827 and H1975 cell lines were purchased from ATCC (United States) and cultured according to the manuals. Cells were grown in monolayers in appropriate media supplemented with 10% fetal bovine serum and 1% antibiotic/antimycotic solution. Ba/F3 cells stably expressing EGFR^L858R were obtained by infection with lentivirus produced by co-transfection of pLVX-EGFR^L858R, psPAX2, and pMD2.G into 293T cells, followed by selection with puromycin.
(§1) Cells at 70%–90% confluence were lysed in RIPA buffer with complete protease inhibitor cocktail (Roche Applied Science, Penzberg, Germany). Lysates were quantified, separated on SDS-PAGE gels, and transferred onto PVDF membranes, followed by the blockade with 5% milk in TBS+ 0.1% Tween-20 buffer for 1 h at room temperature. The following primary antibodies were used: anti-EGFR (1:50000, ABclonal Technology, Wuhan, China), anti-pEGFR (Tyr1068, […], Cell Signaling Technology, MA, United States), anti-AKT (1:10000, ABclonal Technology, Wuhan, China), anti-pAKT (1:10000, ABclonal Technology, Wuhan, China), and anti-β-actin (1:10000, ABclonal Technology, Wuhan, China). Protein bands were detected using Tanon High-signal ECL Western Blotting Substrate (Tanon Science and Technology Co., Ltd., Shanghai, China). The band density of the protein of interest was quantified using ImageJ.

Data set [2] deals with HCC827 cells. Description: Cell viability (CCK-8) in HCC827 cells. Type of data set: cell-based, human. The following applies: for IC50: Homo sapiens, CCK-8. As for the experimental part:
(§2) The viability of cells was determined using Cell Counting Kit-8 (CCK-8; Dojindo), and IC50 was calculated using GraphPad Prism (version 6.0). For colony formation assays, cells (1 × 10^3 cells/well) seeded in 24-well plates were treated with different concentrations of compounds and replaced with fresh media with compounds every 4 days. After 7 days, the cells were washed with PBS, fixed with methanol, and stained with 0.1% crystal violet solution.

The subject of data set [3] is pEGFR and pAKT. Description: Western blot of downstream signaling in HCC827 cells. Type of data set: cell-based, human. As for the experimental part:
as §1

Data set [4] deals with HeLa cells. The experiment in a line: Cell viability (CCK-8) in HeLa cells. Type of data set: cell-based. The settings on record: up to 1 μM, 96 h. As for the experimental part: as §2, with “Cells (5 × 10^3 for 48 h or 1 × 10^3 for 96 h) were seeded in 96-well plates, allowed to attach overnight, and then incubated with various concentrations of compounds for 48 h or 96 h. The” for “The”

Data set [5] is described as follows: Mouse weights in HCC827 xenograft study. Type of data set: in vivo. The settings on record: 30 mg/kg intraperitoneal, repeated and one-time dosing. As for the experimental part:
(§3) Female BALB/c nude mice (5–6 weeks old) were purchased from Changzhou Cavens Laboratory Animal Co., Ltd. (China) and housed under pathogen-free conditions. HCC827 cells (5 × 10^6) suspended in 150 μL PBS were inoculated subcutaneously on the left flank of the mouse. When tumor volume reached an average of 70–80 mm^3, mice were randomly assigned to two groups (three mice in each group). Compound 14 (30 mg/kg, dissolved in 40% PEG 400 and 5% Tween-80) or vehicle (40% PEG 400 and 5% Tween-80) was administered to mice via intraperitoneal injection every 2 days for 21 days. The tumor volume was calculated as follows: tumor volume (mm^3) = (length × width^2)/2. All animal experiments were approved by the Ethics Committee for laboratory animals, The Nanjing Han & Zaenker Cancer Institute (File number: OGKQSPF/SQ-112).

The test system of data set [6] is H1975 cells. The experiment in a line: Cell viability (CCK-8) in H1975 cells. The settings on record: up to 1 μM, 96 h. Type of data set: cell-based. As for the experimental part: as §2, with “Cells (5 × 10^3 for 48 h or 1 × 10^3 for 96 h) were seeded in 96-well plates, allowed to attach overnight, and then incubated with various concentrations of compounds for 48 h or 96 h. The” for “The”

The target of data set [7] is T2, EGFR^Del19 (Homo sapiens, UniProt P00533+Q96SW2, DEL746-750). Description: Western blot of EGFR degradation in HCC827 cells. The following applies: for EGFR protein remaining under cycloheximide: HCC827, cycloheximide 100 μg/mL + 10 nM compound. More on the design: host or cells: HCC827. The class given is cell-based. As for the experimental part: HCC827 and H1975 cell lines were purchased from ATCC (United States) and cultured according to the manuals. Cells were grown in monolayers in appropriate media supplemented with 10% fetal bovine serum and 1% antibiotic/antimycotic solution.
as §1

Data set [8] relates to HCC827 cells. Description: Apoptosis assay (Annexin V-FITC/PI, flow cytometry). The class given is cell-based, human. The following applies: HCC827, 10 nM, 48 h. An excerpt: The percentage of apoptotic cells in total cells was designated as the apoptotic index.
In data set [9] the target is T3, EGFR^L858R/T790M protein (Homo sapiens, UniProt P00533, L858R/T790M).
T3 construct: nor the EGFR^L858R/T790M protein in the H1975 cell line, up to 1 μM; host or cells: H1975
The experiment in a line: Immunoblots of EGFR in H1975 cells. Type of data set: cell-based. The following applies: H1975 cell line, up to 1 μM, 24 h. As for the experimental part: as §1

Data set [10] relates to HCC827 human tumor xenograft. Description: HCC827 xenograft tumor growth in BALB/c nude mice. The class given is in vivo, mouse. As for the experimental part:
as §3, with “Compound 14 (30 mg/kg, dissolved in 40% PEG 400 and 5% Tween-80) or vehicle (40% PEG 400 and 5% Tween-80) was administered to mice via intraperitoneal injection every 2 days for 21 days.” left out

The target in data set [11] is EGFR^WT protein (Homo sapiens, UniProt P00533). Description: Immunoblots of EGFR in H1299, H460 and HeLa cells. The settings on record: H1299, H460 and HeLa cell lines, up to 1 μM, 24 h. Type of data set: cell-based. As for the experimental part:
as §1

In data set [12] the target is T2, EGFR^Del19. The experiment in a line: Western blot of dissected HCC827 xenograft tumors. Type of data set: in vivo, mouse. On the set-up: from tissue; host or cells: HCC827 xenograft tumours in female BALB/c nude mice. The settings on record: 30 mg/kg intraperitoneal. As for the experimental part:
as §1
Female BALB/c nude mice (5–6 weeks old) were purchased from Changzhou Cavens Laboratory Animal Co., Ltd. (China) and housed under pathogen-free conditions. HCC827 cells (5 × 10^6) suspended in 150 μL PBS were inoculated subcutaneously on the left flank of the mouse. When tumor volume reached an average of 70–80 mm^3, mice were randomly assigned to two groups (three mice in each group). […] The tumor volume was calculated as follows: tumor volume (mm^3) = (length × width^2)/2. […]

Data set [13] deals with HCC827 cells. Description: Colony formation assay in HCC827 cells. The settings on record: HCC827, 7 days. The class given is cell-based, human. As for the experimental part:
as §2, with “Cells (5 × 10^3 for 48 h or 1 × 10^3 for 96 h) were seeded in 96-well plates, allowed to attach overnight, and then incubated with various concentrations of compounds for 48 h or 96 h. The” for “The”

Data set [14] concerns H1299 cells. The experiment in a line: Cell viability (CCK-8) in H1299 cells. Type of data set: cell-based. The following applies: up to 1 μM, 96 h. As for the experimental part: as §2, with “Cells (5 × 10^3 for 48 h or 1 × 10^3 for 96 h) were seeded in 96-well plates, allowed to attach overnight, and then incubated with various concentrations of compounds for 48 h or 96 h. The” for “The”

Data set [15] concerns EGFR^Del19. The following applies: HCC827 cells; ref Zhao et al., 2022; cited from earlier work.
The test system of data set [16] is HCC827 cells. The settings on record: ref Zhao et al., 2022; cited from earlier work.

Structures are written as SMILES. Values joined by “and” are separate entries in the source; they are usually repeats but may differ in a detail not shown here. Equal values may be shown once. “Also recorded” adds a separate entry of the source. Read-outs that look alike come from different tables or passages of the source.

For the compound `COc1cc2c(Nc3ccc(F)c(Cl)c3)ncnc2cc1OCCCN1CCN(CCN2CCN(c3ccc4c(c3)C(=O)N(C3CCC(=O)NC3=O)C4=O)CC2)CC1` (stereo not drawn) [Compound 14], the DC50 was 20.6 nM in data set [1] (Ba/F3 cells stably expressing EGFR^L858R); 0.26 nM and 0.261 nM in [7] (HCC827 cells, 24 h treatment). For the same compound, the “Degradation of EGFR^L858R compared with MS154” value in data set [1] (Ba/F3 cells) is on record as “remarkable improvements”. In data set [2] (HCC827, 10 nM for 8 h, washed, fresh media 24-96 h), the “Proliferation after compound removal” value is reported as “almost completely stopped proliferating; also recorded: completely ceased proliferation”. For the same compound, the IC50 in [2] (HCC827, 48 h, HCC827, 48 h incubation) is roughly 8.29 nM; in data set [2] (HCC827, 96 h, HCC827, 96 h incubation), 4.91 nM. In addition, the “Proliferation of HCC827 cells versus control vehicle” value in data set [2] (different concentrations) was “markedly attenuated the proliferation”. For the same compound, the “Levels of pEGFR and pAKT” value in [3] is recorded as “markedly reduced; also recorded: more marked decreases”. Besides, the Effect on viability entry in data set [4], in [6] and in data set [14] was “not affecting the viability; also recorded: did not affect the viability” in each case. Further, the “Signs of wasting (mouse weights)” value in data set [5] is “None of the mice showed signs of wasting”. The “EGFR degradation (%)” value in [7] (10 nM, HCC827, 24 h, average of two independent experiments, NA = not active) is 66.3% ± 3.5% and 66.3 ± 3.5%. In addition, the “EGFR protein remaining under cycloheximide” value in data set [7] (4 h) stood at 34.5%; in [7] (8 h), 12.5%. Also, the “Earliest time at which EGFR^Del19 degradation observed” value in data set [7] (HCC827 cells, 10 nM) stood at 2 h. In addition, in [7] (HCC827 cells, 10 nM, after 24 h of incubation, read-out: Maximum degradation (Dmax) in time course), the Dmax at 0.01 µM was found to be 85%. Further, the “Duration of sustained EGFR^Del19 degradation” value in data set [7] (HCC827 cells, 10 nM, continuous incubation) is 96 h. The “Duration of EGFR^Del19 reduction after compound removal” value in data set [7] (HCC827 cells, 8 h incubation with 10 nM, then washout) is listed as “over 72 h”. Moreover, the “Degradation of EGFR^Del19 compared with MS154” value in data set [7] (HCC827 cells, 24 h) was “remarkable improvements”. For the same compound, the Dmax in data set [7] (HCC827 cells, 24 h, dose-response) was 91.2%. For the same compound, in [8], the “Increase in the number of apoptotic cells” value is on record as “at least a two-fold increase”. Moreover, the “Degradation of EGFR^L858R/T790M protein” value in data set [9] is recorded as “neither compound degraded”. Further, the Mean tumor volume in data set [10] (30 mg/kg intraperitoneal every 2 days for 21 days) amounted to 56.58 ± 10.91 mm^3. In addition, the “Mean tumor volume inhibition” value in data set [10] (one-time intraperitoneal injection 30 mg/kg, 18 days after treatment, versus vehicle) is 79%. In addition, the “Degradation of EGFR^WT protein” value in [11] is given as “no effect; also recorded: neither compound degraded; also recorded: No significant degradation”. In data set [12], the “EGFR^Del19 protein in tumors in vivo” value is listed as “effectively degraded”. In data set [13], the Colony formation result is “fewer and smaller colonies”.

Take `C=CC(=O)N1CCC[C@H](n2c(Nc3ccccc3)nc3cnc(Nc4ccc(N5CCN(CCCCCCCC(=O)N[C@H](C(=O)N6C[C@H](O)C[C@H]6C(=O)N[C@@H](C)c6ccc(-c7scnc7C)cc6)C(C)(C)C)CC5)cc4)nc32)C1` [CP17]: the DC50 in data set [15] was 0.49 nM. In [16], the IC50 is 1.6 nM.
